The NIST ThermoML archive (doi:10.1016/j.tca.2012.01.013)

Legend:
[1] = refractive index (Na D-line) (dimensionless); xn = mol fraction of the nth substance listed; details: 101 kPa, Liquid, Standard Abbe refractometry
[2] = xn = mol fraction of the nth substance listed; details: 101 kPa, Liquid, Vibrating tube method

COC(=O)c1ccccc1C(=O)OC [dimethyl 1,2-benzenedicarboxylate] + CCC(C)=O
Details	mass density, [2] [kg/m3]	refractive index, [1]
288.15 K, x1 = 0.1002	878.718	1.40705
288.15 K, x1 = 0.2001	936.554	1.42733
288.15 K, x1 = 0.3002	986.029	1.44555
288.15 K, x1 = 0.3997	1028.42	1.46042
288.15 K, x1 = 0.4982	1064.97	1.47261
288.15 K, x1 = 0.6001	1098.15	1.48425
288.15 K, x1 = 0.6993	1126.71	1.49362
288.15 K, x1 = 0.7993	1152.38	1.50271
288.15 K, x1 = 0.9002	1175.59	1.51071
288.15 K, x1 = 1	1196.26	1.51779
293.15 K, x1 = 0.1002	873.583	1.40471
293.15 K, x1 = 0.2001	931.496	1.42489
293.15 K, x1 = 0.3002	981.04	1.44315
293.15 K, x1 = 0.3997	1023.49	1.45808
293.15 K, x1 = 0.4982	1060.1	1.4703
293.15 K, x1 = 0.6001	1093.33	1.48198
293.15 K, x1 = 0.6993	1121.93	1.49141
293.15 K, x1 = 0.7993	1147.64	1.50053
293.15 K, x1 = 0.9002	1170.9	1.50855
293.15 K, x1 = 1	1191.59	1.51565
298.15 K, x1 = 0.1002	868.432	1.40224
298.15 K, x1 = 0.2001	926.423	1.42243
298.15 K, x1 = 0.3002	976.038	1.44075
298.15 K, x1 = 0.3997	1018.55	1.45576
298.15 K, x1 = 0.4982	1055.22	1.46801
298.15 K, x1 = 0.6001	1088.5	1.47972
298.15 K, x1 = 0.6993	1117.16	1.48918
298.15 K, x1 = 0.7993	1142.92	1.49835
298.15 K, x1 = 0.9002	1166.21	1.5064
298.15 K, x1 = 1	1186.93	1.51354
303.15 K, x1 = 0.1002	863.253	1.39965
303.15 K, x1 = 0.2001	921.334	1.41998
303.15 K, x1 = 0.3002	971.032	1.43839
303.15 K, x1 = 0.3997	1013.62	1.45342
303.15 K, x1 = 0.4982	1050.34	1.4657
303.15 K, x1 = 0.6001	1083.68	1.47746
303.15 K, x1 = 0.6993	1112.38	1.48696
303.15 K, x1 = 0.7993	1138.18	1.49618
303.15 K, x1 = 0.9002	1161.51	1.50426
303.15 K, x1 = 1	1182.28	1.51146
308.15 K, x1 = 0.1002	858.059	1.39705
308.15 K, x1 = 0.2001	916.232	1.41752
308.15 K, x1 = 0.3002	966.01	1.4359
308.15 K, x1 = 0.3997	1008.66	1.45091
308.15 K, x1 = 0.4982	1045.45	1.46339
308.15 K, x1 = 0.6001	1078.84	1.4752
308.15 K, x1 = 0.6993	1107.6	1.48475
308.15 K, x1 = 0.7993	1133.45	1.49399
308.15 K, x1 = 0.9002	1156.83	1.50211
308.15 K, x1 = 1	1177.62	1.50943
313.15 K, x1 = 0.1002	852.838	1.3943
313.15 K, x1 = 0.2001	911.111	1.41502
313.15 K, x1 = 0.3002	960.975	1.43328
313.15 K, x1 = 0.3997	1003.7	1.44834
313.15 K, x1 = 0.4982	1040.55	1.46101
313.15 K, x1 = 0.6001	1074.01	1.47289
313.15 K, x1 = 0.6993	1102.82	1.48252
313.15 K, x1 = 0.7993	1128.73	1.49187
313.15 K, x1 = 0.9002	1152.15	1.50006
313.15 K, x1 = 1	1172.97	1.50736
318.15 K, x1 = 0.1002	847.588	1.39158
318.15 K, x1 = 0.2001	905.966	1.4124
318.15 K, x1 = 0.3002	955.922	1.43077
318.15 K, x1 = 0.3997	998.73	1.44591
318.15 K, x1 = 0.4982	1035.65	1.45864
318.15 K, x1 = 0.6001	1069.17	1.47061
318.15 K, x1 = 0.6993	1098.05	1.48032
318.15 K, x1 = 0.7993	1124.01	1.48973
318.15 K, x1 = 0.9002	1147.47	1.49796
318.15 K, x1 = 1	1168.32	1.50524
323.15 K, x1 = 0.1002	842.312	1.38878
323.15 K, x1 = 0.2001	900.811	1.40956
323.15 K, x1 = 0.3002	950.87	1.42768
323.15 K, x1 = 0.3997	993.761	1.44306
323.15 K, x1 = 0.4982	1030.75	1.45602
323.15 K, x1 = 0.6001	1064.33	1.4681
323.15 K, x1 = 0.6993	1093.26	1.47795
323.15 K, x1 = 0.7993	1119.27	1.48748
323.15 K, x1 = 0.9002	1140.78	1.49582
323.15 K, x1 = 1	1163.67	1.5032

COC(=O)c1ccccc1C(=O)OC [dimethyl 1,2-benzenedicarboxylate] + CCC(C)O
Details	mass density, [2] [kg/m3]	refractive index, [1]
288.15 K, x1 = 0.1002	874.348	1.41917
288.15 K, x1 = 0.2014	929.895	1.43651
288.15 K, x1 = 0.3002	977.298	1.45122
288.15 K, x1 = 0.4001	1019.6	1.46424
288.15 K, x1 = 0.5002	1057.27	1.47591
288.15 K, x1 = 0.5991	1090.58	1.48597
288.15 K, x1 = 0.6993	1120.97	1.49516
288.15 K, x1 = 0.7996	1148.47	1.50345
288.15 K, x1 = 0.9015	1173.86	1.51115
288.15 K, x1 = 1	1196.26	1.51779
293.15 K, x1 = 0.1002	870.052	1.41698
293.15 K, x1 = 0.2014	925.438	1.43429
293.15 K, x1 = 0.3002	972.737	1.44898
293.15 K, x1 = 0.4001	1014.97	1.46209
293.15 K, x1 = 0.5002	1052.6	1.47367
293.15 K, x1 = 0.5991	1085.88	1.48373
293.15 K, x1 = 0.6993	1116.26	1.49296
293.15 K, x1 = 0.7996	1143.78	1.50126
293.15 K, x1 = 0.9015	1169.18	1.50899
293.15 K, x1 = 1	1191.59	1.51565
298.15 K, x1 = 0.1002	865.694	1.41476
298.15 K, x1 = 0.2014	920.934	1.43205
298.15 K, x1 = 0.3002	968.144	1.44672
298.15 K, x1 = 0.4001	1010.32	1.45982
298.15 K, x1 = 0.5002	1047.9	1.47143
298.15 K, x1 = 0.5991	1081.18	1.48158
298.15 K, x1 = 0.6993	1111.56	1.49076
298.15 K, x1 = 0.7996	1139.08	1.49911
298.15 K, x1 = 0.9015	1164.51	1.50685
298.15 K, x1 = 1	1186.93	1.51354
303.15 K, x1 = 0.1002	861.267	1.41252
303.15 K, x1 = 0.2014	916.383	1.42979
303.15 K, x1 = 0.3002	963.512	1.44444
303.15 K, x1 = 0.4001	1005.63	1.45755
303.15 K, x1 = 0.5002	1043.19	1.46921
303.15 K, x1 = 0.5991	1076.45	1.47934
303.15 K, x1 = 0.6993	1106.84	1.48856
303.15 K, x1 = 0.7996	1134.39	1.49692
303.15 K, x1 = 0.9015	1159.83	1.5047
303.15 K, x1 = 1	1182.28	1.51146
308.15 K, x1 = 0.1002	856.794	1.4102
308.15 K, x1 = 0.2014	911.783	1.42751
308.15 K, x1 = 0.3002	958.844	1.44214
308.15 K, x1 = 0.4001	1000.92	1.45527
308.15 K, x1 = 0.5002	1038.47	1.46689
308.15 K, x1 = 0.5991	1071.73	1.47701
308.15 K, x1 = 0.6993	1102.13	1.48633
308.15 K, x1 = 0.7996	1129.69	1.49475
308.15 K, x1 = 0.9015	1155.16	1.50256
308.15 K, x1 = 1	1177.62	1.50943
313.15 K, x1 = 0.1002	852.235	1.40779
313.15 K, x1 = 0.2014	907.129	1.42515
313.15 K, x1 = 0.3002	954.133	1.43975
313.15 K, x1 = 0.4001	996.185	1.45295
313.15 K, x1 = 0.5002	1033.72	1.46458
313.15 K, x1 = 0.5991	1066.99	1.47484
313.15 K, x1 = 0.6993	1097.4	1.48415
313.15 K, x1 = 0.7996	1124.99	1.49263
313.15 K, x1 = 0.9015	1150.49	1.50047
313.15 K, x1 = 1	1172.97	1.50736
318.15 K, x1 = 0.1002	847.597	1.40549
318.15 K, x1 = 0.2014	902.417	1.42284
318.15 K, x1 = 0.3002	949.381	1.43749
318.15 K, x1 = 0.4001	991.415	1.45068
318.15 K, x1 = 0.5002	1028.95	1.46236
318.15 K, x1 = 0.5991	1062.23	1.47262
318.15 K, x1 = 0.6993	1092.67	1.48194
318.15 K, x1 = 0.7996	1120.3	1.49047
318.15 K, x1 = 0.9015	1145.82	1.49835
318.15 K, x1 = 1	1168.32	1.50524
323.15 K, x1 = 0.1002	842.887	1.40309
323.15 K, x1 = 0.2014	897.649	1.42026
323.15 K, x1 = 0.3002	944.587	1.4351
323.15 K, x1 = 0.4001	986.618	1.4483
323.15 K, x1 = 0.5002	1024.16	1.46001
323.15 K, x1 = 0.5991	1057.47	1.47032
323.15 K, x1 = 0.6993	1087.94	1.47972
323.15 K, x1 = 0.7996	1115.59	1.48828
323.15 K, x1 = 0.9015	1141.14	1.49621
323.15 K, x1 = 1	1163.67	1.5032
